Test results as given in the Kinase Knowledgebase extract (Sharma et al. 2016).

Tests used:
[1] = target: MAPK14 (human) (UniProt Q16539); test: Enzyme Assay; conditions: A375; concentration not given here
[2] = target: MAPK14 (human) (UniProt Q16539); test: Enzyme Assay; conditions: A375; concentration not given here; remark: listed apart in the source

Sequence of MAPK14 (human) (Q16539 whole entry, looked up): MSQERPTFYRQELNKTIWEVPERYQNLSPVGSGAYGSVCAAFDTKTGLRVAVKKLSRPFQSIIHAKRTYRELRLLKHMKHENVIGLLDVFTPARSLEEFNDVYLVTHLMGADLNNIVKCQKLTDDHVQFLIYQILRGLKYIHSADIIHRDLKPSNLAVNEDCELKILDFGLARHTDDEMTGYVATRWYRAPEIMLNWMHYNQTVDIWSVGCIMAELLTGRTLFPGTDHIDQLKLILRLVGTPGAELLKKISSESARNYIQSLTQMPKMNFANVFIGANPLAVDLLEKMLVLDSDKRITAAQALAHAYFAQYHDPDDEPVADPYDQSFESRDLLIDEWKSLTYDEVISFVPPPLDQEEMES

activity [1]	activity [2]	SMILES
25.3%	34.7%	COc1cccc(-c2cc(=O)c3ccccc3o2)c1N
6.32%	18.9%	N#CC(=C(/N)Sc1ccccc1N)/C(C#N)=C(\N)Sc1ccccc1N
